Among the test systems are OVCAR-3 ovarian; HOP-62 NSCLC; OVCAR-8 ovarian; UACC-62 melanoma; COLO 205 colon; HL-60(TB) leukemia; SK-MEL-5 melanoma; MCF7 breast; MALME-3M melanoma; UACC-257 melanoma.
What all share (assay): NCI tumour cell line growth inhibition, 48 h

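The compound was tested at five concentrations on cells cultured in 96-well plates, with a 48-hour exposure period. Abbreviation: GI50, concentration required for 50% inhibition of growth. The concentration for full growth arrest is given as TGI.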 Bounds are passed on as bounds.

On to `O=C(CC1(O)C(=O)Nc2c(Cl)ccc(Cl)c21)c1ccc(C2CC2)cc1` (centres undefined), for which the GI50 in the assay with OVCAR-3 ovarian is 3460 nM; in the assay on HOP-62 NSCLC, 1280 nM; in the assay on OVCAR-8 ovarian it was 1430 nM; in the assay on UACC-62 melanoma, 508 nM; in the assay with COLO 205 colon, 801 nM; with HL-60(TB) leukemia it was 318 nM. The GI50 was 1370 nM in the assay on SK-MEL-5 melanoma, 322 nM in the assay with MCF7 breast, 1530 nM in the assay with MALME-3M melanoma and 2480 nM with UACC-257 melanoma. The TGI with OVCAR-3 ovarian turned out to be 16600 nM; with HOP-62 NSCLC, 19400 nM; in the assay with OVCAR-8 ovarian, 13400 nM; in the assay with UACC-62 melanoma, 17400 nM; in the assay with COLO 205 colon, 3060 nM; with HL-60(TB) leukemia it was 10300 nM. Besides, the TGI is 13800 nM in the assay with SK-MEL-5 melanoma, 14500 nM with MCF7 breast, 26800 nM in the assay with MALME-3M melanoma and 24700 nM with UACC-257 melanoma.

On to `O=C(Nc1ccc(S(=O)(=O)NC2CCCCCC2)cc1)C(c1ccccc1)S(=O)(=O)c1ccc(F)cc1` (centres undefined), for which the GI50 is 367 nM with OVCAR-3 ovarian; 970 nM in the assay on HOP-62 NSCLC; 702 nM in the assay with OVCAR-8 ovarian; 137 nM with UACC-62 melanoma; 357 nM with HL-60(TB) leukemia; 404 nM in the assay with SK-MEL-5 melanoma. Further, the figures for the GI50 in the assay on MCF7 breast, with MALME-3M melanoma and in the assay on UACC-257 melanoma were 124 nM, 250 nM and 621 nM, respectively. Further, the TGI in the assay with OVCAR-3 ovarian stood at 2850 nM; in the assay with HOP-62 NSCLC it was 3860 nM; in the assay on OVCAR-8 ovarian, 4680 nM; in the assay on UACC-62 melanoma, 690 nM; in the assay on HL-60(TB) leukemia it was 2510 nM; in the assay with SK-MEL-5 melanoma it was 1720 nM. The TGI in the assay on MCF7 breast was 1610 nM; in the assay on MALME-3M melanoma, 1810 nM; with UACC-257 melanoma it was 2980 nM.

Take `COc1cc(C2C(C#N)=C(N)Oc3cc4c(cc32)OCO4)cc2c1OCO2` (centres undefined): the GI50 was 92.8 nM in the assay on OVCAR-3 ovarian; 393 nM in the assay on HOP-62 NSCLC; 466 nM in the assay on OVCAR-8 ovarian; 285 nM with UACC-62 melanoma; 308 nM with COLO 205 colon; 219 nM in the assay with HL-60(TB) leukemia. Also, the GI50 with SK-MEL-5 melanoma was 101 nM; in the assay on MCF7 breast, 187 nM; in the assay with MALME-3M melanoma, 2670 nM; with UACC-257 melanoma, 900 nM. Besides, the TGI in the assay on OVCAR-3 ovarian is 350 nM; in the assay on HOP-62 NSCLC, above 100000 nM; with OVCAR-8 ovarian, above 100000 nM; in the assay on UACC-62 melanoma, above 100000 nM; in the assay with COLO 205 colon, 1020 nM; in the assay with HL-60(TB) leukemia, 715 nM. Also, the TGI is 14300 nM in the assay with SK-MEL-5 melanoma, above 75000 nM in the assay with MCF7 breast, above 100000 nM in the assay with MALME-3M melanoma and above 100000 nM in the assay on UACC-257 melanoma.

On to `COc1cc(/C=C/C(=O)c2ccc(Nc3nc(Nc4ccccc4)nc(Nc4ccc(Cl)cc4)n3)cc2)cc(OC)c1OC`, for which the GI50 is 8620 nM in the assay on OVCAR-3 ovarian; above 32500 nM in the assay with HOP-62 NSCLC; 3340 nM in the assay with OVCAR-8 ovarian; 14700 nM in the assay with UACC-62 melanoma; 8550 nM in the assay with COLO 205 colon; 1180 nM in the assay on HL-60(TB) leukemia. Moreover, the GI50 is 4760 nM in the assay on SK-MEL-5 melanoma, 2020 nM in the assay on MCF7 breast, 9710 nM in the assay on MALME-3M melanoma and above 32500 nM with UACC-257 melanoma. For the same molecule, the TGI was above 32500 nM in the assay with OVCAR-3 ovarian; above 32500 nM in the assay with HOP-62 NSCLC; above 32500 nM in the assay on OVCAR-8 ovarian; above 32500 nM in the assay with UACC-62 melanoma; above 32500 nM in the assay with COLO 205 colon; 11300 nM with HL-60(TB) leukemia. In addition, the TGI in the assay on SK-MEL-5 melanoma is 30600 nM; with MCF7 breast it was above 32500 nM; in the assay on MALME-3M melanoma it was above 32500 nM; in the assay on UACC-257 melanoma, above 32500 nM.

For the molecule `Cc1ccc(-c2cc(/C=N/O)on2)cc1`, the GI50 was 58200 nM with OVCAR-3 ovarian; above 100000 nM with HOP-62 NSCLC; above 100000 nM in the assay on OVCAR-8 ovarian; 38900 nM with UACC-62 melanoma; 49900 nM with COLO 205 colon; 26500 nM in the assay on HL-60(TB) leukemia. Also, the GI50 was 55100 nM in the assay on MCF7 breast, above 100000 nM in the assay on MALME-3M melanoma and 67500 nM with UACC-257 melanoma. The TGI in the assay with OVCAR-3 ovarian, with HOP-62 NSCLC, with OVCAR-8 ovarian, in the assay on UACC-62 melanoma, in the assay with COLO 205 colon and in the assay on HL-60(TB) leukemia was above 100000 nM each time. Moreover, the TGI in the assay on MCF7 breast, in the assay with MALME-3M melanoma and in the assay with UACC-257 melanoma was above 100000 nM each time.

With `COc1ccc(NC(=O)O[C@H]2[C@H](O[C@H]3[C@@H](O)COC(O[C@H]4C[C@H]5[C@@H]6CC=C7C[C@@H](O)CC[C@]7(C)[C@H]6CC[C@]5(C)[C@H]4[C@H](C)C(=O)CCC(C)C)[C@@H]3OC(C)=O)OC[C@@H](O)[C@@H]2O)cc1` (some centres undefined), the GI50 is 1110 nM in the assay on OVCAR-3 ovarian; below 10 nM in the assay with HOP-62 NSCLC; 7750 nM in the assay on OVCAR-8 ovarian; below 10 nM in the assay on UACC-62 melanoma; 10.5 nM in the assay with COLO 205 colon; 13.9 nM in the assay on HL-60(TB) leukemia. Also, the GI50 with SK-MEL-5 melanoma is below 10 nM; in the assay with MCF7 breast it was below 10 nM; with MALME-3M melanoma it was 11.5 nM. Moreover, the TGI is 31500 nM in the assay with OVCAR-3 ovarian; 1020 nM with HOP-62 NSCLC; above 100000 nM with OVCAR-8 ovarian; below 10 nM in the assay on UACC-62 melanoma; 36.3 nM in the assay with COLO 205 colon; 28200 nM in the assay on HL-60(TB) leukemia. Further, the TGI with SK-MEL-5 melanoma was found to be 11.4 nM; with MCF7 breast it was 1470 nM; with MALME-3M melanoma it was 3250 nM.

With `C/C(=N\Nc1cccc(Cl)n1)c1ccccn1`, the GI50 was 379 nM in the assay on OVCAR-3 ovarian; 456 nM in the assay with HOP-62 NSCLC; 510 nM in the assay on OVCAR-8 ovarian; 1220 nM with UACC-62 melanoma; 380 nM in the assay on COLO 205 colon; 446 nM with HL-60(TB) leukemia. Also, the GI50 with SK-MEL-5 melanoma is 1620 nM; in the assay on MCF7 breast it was 2000 nM; in the assay with MALME-3M melanoma it was 1780 nM; with UACC-257 melanoma, 2270 nM. In addition, the TGI in the assay on OVCAR-3 ovarian is 13300 nM; in the assay on HOP-62 NSCLC, 16900 nM; in the assay with OVCAR-8 ovarian, above 100000 nM; in the assay with UACC-62 melanoma, 4930 nM; with COLO 205 colon, above 21500 nM; with HL-60(TB) leukemia, 3940 nM. Besides, the TGI in the assay with SK-MEL-5 melanoma is 4620 nM; in the assay on MCF7 breast, above 100000 nM; in the assay with MALME-3M melanoma, 8710 nM; in the assay on UACC-257 melanoma, 7510 nM.

(Values after PubChem BioAssay (NCI).)
